Source: patent EP3789378A1, “PIPERIDINES OR PIPERIDONES SUBSTITUTED WITH UREA AND HETEROARYL” (Grünenthal GmbH, priority 2019, dated 2021)

These compounds were tested against T1, h FPR2 (Homo sapiens, UniProt P25090) (assay: Agonistic activity in hFPR2-Aq-CHO cells (FLIPR Calcium 5 fluorescence assay)). Details: 11 point half log dilution, final assay concentration from 10µM.
T1 construct: expressed in transfected cells
T1 sequence (P25090 1-351): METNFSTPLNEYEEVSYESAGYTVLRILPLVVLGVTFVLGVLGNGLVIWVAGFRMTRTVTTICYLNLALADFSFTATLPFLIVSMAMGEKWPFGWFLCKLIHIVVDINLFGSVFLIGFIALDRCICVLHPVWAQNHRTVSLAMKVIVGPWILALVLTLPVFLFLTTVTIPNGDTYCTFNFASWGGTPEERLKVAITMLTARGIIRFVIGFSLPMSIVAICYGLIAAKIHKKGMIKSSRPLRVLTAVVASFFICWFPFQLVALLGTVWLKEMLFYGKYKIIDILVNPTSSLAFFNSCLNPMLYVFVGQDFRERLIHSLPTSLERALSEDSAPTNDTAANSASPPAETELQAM
Format: cell-based
Experimental: After washing, the cells are plated at 10,000 cells per well in 40 µL complete medium in a 384-well sterile clear bottom black plate and incubated in a 5% CO2 incubator at 37°C for 18 hours. Plating media is removed from each well by decanting and gentle tapping before 30 µL of 0.5X Calcium 5 dye solution (0.5X FLIPR Calcium 5 dye (Molecular devices, R8186)); HBSS; 20mM HEPES; 2.5mM Probenecid; 0.025% Pluronic F-127; pH adjusted to 7.4) is added to each well and the plate is then incubated at 37°C for 30 minutes. For the assay the plate is equilibrated at room temperature for 10 minutes before placing it in the FLIPR. Compounds are dissolved in DMSO and serially diluted over an 11 point half log (3.16 fold) dilution (2 mM to 20 nM). Compounds are then diluted 1:50 in assay buffer (HBSS; 20mM HEPES; 2.5mM Probenecid; 0.05% gelatin; 0.1% BSA; pH adjusted to 7.4) just before performing the assay. Compounds are finally added to the respective wells of the cell plate (final assay concentration 10 µM to 100 pM) using the FLIPR (e.g. FLIPR-Tetra, Molecular Devices) and fluorescence readings are captured for 5 minutes. The increase in fluorescence from the basal reading in the presence of the compounds is compared with that of the control wells (wells having no compound) to calculate the activity of the compounds. The EC50 values of the compounds can be determined using e.g. Graph pad Prism software.
Assay method for measuring agonistic activity of compounds in hFPR2-Aq-CHO cell
Cryo-vial containing 6x10^6 cells (hFPR1-Gα15-CHO or hFPR2-Aq-CHO) was thawed in a 37°C water bath. Cells were suspended in 10ml of respective complete growth media (F12(1X)HAM media (Gibco; Cat#11765); 10% HI-FBS (Gibco; Cat#10082); 0.4 mg/ml Geneticin (Gibco; Cat#10131); 0.25 mg/ml Zeocin (Invitrogen; Cat#R25001)) in a 15ml centrifuge tube. The cell viability was checked with the help of Trypan Blue dye. Upon washing the cells, those were plated in a 384-well sterile clear bottom black plate (Greiner Bioone Cat# 781091) so that, each well contained 10,000 cells in 40µl complete growth media. The plate was incubated in a 5% CO2 incubator at 37°C for 18 hours. Before assay on the next day, the cell plating media was removed from each well of the plate by decanting and gentle tapping. 30µl of 0.5X Calcium 5 dye solution (0.5X FLIPR Calcium 5 dye (Molecular devices Cat# R8186); HBSS (Invitrogen; Cat#14025); 20mM HEPES (Sigma; Cat#H0887); 2.5mM Probenecid (Sigma; Cat#P8761); 0.025% Pluronic F-127 (Sigma; Cat#P2443); pH adjusted to 7.4) was added to each well. The plate was then incubated at 37°C for 30 minutes. Following which the plate was equilibrated at room temperature for 10 minutes before placing it in a 384 well FLIPR for assay. Compounds were dissolved in DMSO and serially diluted following 11 point half log (3.16 fold) dilution with a starting concentration of 2mM (Final assay concentration 10µM). Aliquots of above mentioned each dilution was mixed with assay buffer (HBSS (Invitrogen; Cat#14025); 20mM HEPES (Sigma; Cat#H0887); 2.5mM Probenecid (Sigma; Cat#P8761); 0.05% gelatin (Sigma; Cat#G1890); 0.1% BSA (Sigma; Cat#A3059); pH adjusted to 7.4) just before performing the assay. Compounds were added to the respective wells of the assay ready cell plate with the help of the FLIPR (FLIPR Tetra) and fluorescence readings were captured for 5 minutes to measure any agonistic response of the compounds. The increase in fluorescence readings from the basal reading in presence of the compounds were compared with that of the control wells (wells having no compound) to calculate the agonistic activity of the compounds. The EC50 values of the compounds were determined using the Graph pad Prism software.

| Structure (SMILES) | EC50 |
| --- | --- |
| COCCCN1CC[C@@H](NC(=O)Nc2ccc(Cl)cc2)[C@H](c2ccc(OC)cn2)C1 (racemic) [Ex-80, trans-1-(4-chloro-phenyl)-3-[5-methoxy-1'-(3-methoxy-propyl)-1',2',3',4',5',6'-hexahydro-[2,3']bipyridinyl-4'-yl]-urea] | 0.9 nM |
| COc1ccc([C@@H]2CN(C(=O)C3CCN(C)CC3)CC[C@H]2NC(=O)Nc2ccc(Cl)cc2)nc1 (racemic) [Ex-89, trans-1-(4-chloro-phenyl)-3-[5-methoxy-1'-(1-methyl-piperidine-4-carbonyl)-1',2',3',4',5',6'-hexahydro-[2,3']bipyridinyl-4'-yl]-urea] | 2 nM |
| COc1ccc([C@@H]2CN(C(=O)CN(C)C)CC[C@H]2NC(=O)Nc2ccc(Cl)cc2)nc1 (racemic) [Ex-94, trans-1-(4-chloro-phenyl)-3-[1'-(2-dimethylamino-acetyl)-5-methoxy-1',2',3',4',5',6'-hexahydro-[2,3']bipyridinyl-4'-yl]-urea] | 2 nM |
| COc1ccc([C@@H]2CN(CC(F)F)CC[C@H]2NC(=O)Nc2ccc(C#N)cc2)nc1 (racemic) [Ex-113, trans-1-(4-cyanophenyl)-3-[1-(2,2-difluoroethyl)-3-(5-methoxy-2-pyridyl)-4-piperidyl]urea] | 1.2 nM |
| COc1ccc([C@@H]2CN(C(=O)C3CNC3)CC[C@H]2NC(=O)Nc2ccccc2)nc1 (racemic) [Ex-165, trans-1-[1-(Azetidine-3-carbonyl)-3-(5-methoxy-pyridin-2-yl)-piperidin-4-yl]-3-phenyl-urea] | 11 nM |
| COc1ccc([C@@H]2CN(c3ccncn3)CC[C@H]2NC(=O)Nc2ccc(Cl)cc2)cn1 (relative stereo) [Ex-1, trans-1-(4-chloro-phenyl)-3-(6'-methoxy-1-pyrimidin-4-yl-1,2,3,4,5,6-hexahydro-[3,3']bipyridinyl-4-yl)-urea] | 6 nM |
| COc1ccc([C@@H]2CN(c3ccc(F)cc3)CC[C@H]2NC(=O)Nc2ccc(Cl)cc2)cn1 (relative stereo) [Ex-2, trans-1-(4-chloro-phenyl)-3-[1-(4-fluoro-phenyl)-6'-methoxy-1,2,3,4,5,6-hexahydro-[3,3']bipyridinyl-4-yl]-urea] | 11 nM |
| COc1ccc([C@@H]2CN(c3ccc(F)cc3)CC[C@H]2NC(=O)Nc2cc(C)ns2)cn1 (relative stereo) [Ex-3, trans-1-[1-(4-fluoro-phenyl)-6'-methoxy-1,2,3,4,5,6-hexahydro-[3,3']bipyridinyl-4-yl]-3-(3-methyl-isothiazol-5-yl)-urea] | 10 nM |
| COc1ccc([C@@H]2CN(c3ccncn3)CC[C@H]2NC(=O)Nc2cc(C)ns2)cn1 (relative stereo) [Ex-4, trans-1-(6'-methoxy-1-pyrimidin-4-yl-1,2,3,4,5,6-hexahydro-[3,3']bipyridinyl-4-yl)-3-(3-methyl-isothiazol-5-yl)-urea] | 11 nM |
| COc1ccc([C@@H]2CN(c3ccncn3)CC[C@H]2NC(=O)Nc2ccc(Cl)cc2)nc1 (relative stereo) [Ex-7, trans-1-(4-chloro-phenyl)-3-(5-methoxy-1'-pyrimidin-4-yl-1',2',3',4',5',6'-hexahydro-[2,3']bipyridinyl-4'-yl)-urea] | 0.4 nM |
| COc1ccc([C@@H]2CN(c3ccncn3)CC[C@H]2NC(=O)Nc2cc(C)ns2)nc1 (relative stereo) [Ex-8, trans-1-(5-methoxy-1'-pyrimidin-4-yl-1',2',3',4',5',6'-hexahydro-[2,3']bipyridinyl-4'-yl)-3-(3-methyl-isothiazol-5-yl)-urea] | 1 nM |
| O=C(Nc1ccc(Cl)cc1)N[C@@H]1CCN(c2ccncn2)C[C@H]1c1ccc(Cl)cn1 (relative stereo) [Ex-9, trans-1-(4-chloro-phenyl)-3-(5-chloro-1'-pyrimidin-4-yl-1',2',3',4',5',6'-hexahydro-[2,3']bipyridinyl-4'-yl)-urea] | 2 nM |
| Cc1cc(NC(=O)N[C@@H]2CCN(c3ccncn3)C[C@H]2c2ccc(Cl)cn2)sn1 (relative stereo) [Ex-13, trans-1-(5-chloro-1'-pyrimidin-4-yl-1',2',3',4',5',6'-hexahydro-[2,3']bipyridinyl-4'-yl)-3-(3-methyl-isothiazol-5-yl)-urea] | 2 nM |

Results, then the compound that gave them:

| EC50 | Structure (SMILES) |
| --- | --- |
| 0.16 nM | COc1ccc([C@@H]2CN(c3ccc(F)cc3)C(=O)C[C@H]2NC(=O)Nc2ccc(Cl)cc2)cn1 (relative stereo) [Ex-5, trans-1-(4-chlorophenyl)-3-[-1-(4-fluorophenyl)-5-(6-methoxypyridin-3-yl)-2-oxopiperidin-4-yl]urea] |
| 6 nM | COc1ccc([C@H]2CN(c3ccc(F)cc3)C(=O)C[C@H]2NC(=O)Nc2ccc(Cl)cc2)cn1 (relative stereo) [Ex-6, cis-1-(4-chlorophenyl)-3-[1-(4-fluorophenyl)-5-(6-methoxypyridin-3-yl)-2-oxopiperidin-4-yl]urea] |
| 0.05 nM | COc1ccc([C@@H]2CN(c3ccc(F)cc3)C(=O)C[C@H]2NC(=O)Nc2ccc(Cl)cc2)nc1 (relative stereo) [Ex-10, trans-1-(4-chlorophenyl)-3-[1-(4-fluorophenyl)-5-(5-methoxypyridin-2-yl)-2-oxopiperidin-4-yl]urea] |
| 6 nM | COc1ccc([C@H]2CN(c3ccc(F)cc3)C(=O)C[C@H]2NC(=O)Nc2ccc(Cl)cc2)nc1 (relative stereo) [Ex-11, cis-1-(4-chlorophenyl)-3-[1-(4-fluorophenyl)-5-(5-methoxypyridin-2-yl)-2-oxopiperidin-4-yl]urea] |
| 9 nM | O=C(Nc1ccc(Cl)cc1)N[C@@H]1CCN(c2ccc(F)cc2)C[C@H]1c1ccc(Cl)cn1 (relative stereo) [Ex-12, trans-1-[5-chloro-1'-(4-fluoro-phenyl)-1',2',3',4',5',6'-hexahydro-[2,3']bipyridinyl-4'-yl]-3-(4-chlorophenyl)-urea] |
| 0.4 nM | O=C(Nc1ccc(Cl)cc1)N[C@@H]1CC(=O)N(c2ccc(F)cc2)C[C@H]1c1ccc(Cl)cn1 (relative stereo) [Ex-14, trans-1-(4-chlorophenyl)-3-[5-(5-chloropyridin-2-yl)-1-(4-fluorophenyl)-2-oxopiperidin-4-yl]urea] |
| 0.8 nM | COc1ccc([C@@H]2CN(c3ccc(F)cc3)CC[C@H]2NC(=O)Nc2ccc(Cl)cc2)nc1 (relative stereo) [Ex-18, trans-1-(4-chloro-phenyl)-3-[1'-(4-fluoro-phenyl)-5-methoxy-1',2',3',4',5',6'-hexahydro-[2,3']bipyridinyl-4'-yl]-urea] |

Same assay, conditions: agonistic response at 0.1µM

| activation at 0.1 µM | Structure (SMILES) |
| --- | --- |
| 30% | Cc1cc(NC(=O)N[C@@H]2CCN(c3ccncn3)C[C@H]2c2ccc(Cl)cn2)sn1 (relative stereo) [Ex-17, trans-1-(5-chloro-1'-pyrimidin-4-yl-1',2',3',4',5',6'-hexahydro-[2,3']bipyridinyl-4'-yl)-3-(3-methyl-isothiazol-5-yl)-urea] |
